US10023602B2, “Hamamelitannin analogues and uses thereof” (Universiteit Gent, priority 2014, dated 2018)

Key:
[1] = test system: methicillin resistant S. aureus Mu50 strain (S. aureus ATCC700699) biofilm; test: Biofilm susceptibility to vancomycin, pre-treatment regimen (biofilm formed in presence of compound, then vancomycin); format: cell-based; conditions: for Pretreat (100 μM): percentage Colony Forming Units (CFU's) per biofilm: compound 100 μM during biofilm formation; for Pretreat (100 μM): percentage Colony Forming Units (CFU's) per biofilm / Pretreat. (25 μM): percentage Colony Forming Units (CFU's) per biofilm: then VAN 20 μg/ml, compared to the untreated (negative) control; for EC50: concentration needed to get 50% killing compared to antibiotic alone (VAN 20 μg/ml) and complete killing, read-out: Pretreat. (EC50); for Pretreat. (25 μM): percentage Colony Forming Units (CFU's) per biofilm: compound 25 μM during biofilm formation
Procedure, shortened: (§1)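 Mu50 biofilms from 10^8 CFU/ml inoculum (4 h adhesion, then 20 h, 37 °C). Pre-treatment: compound (0.1-250 μM) present during biofilm formation, then vancomycin 20 μg/ml alone 24 h; combination: mature biofilm given vancomycin 20 μg/ml plus compound 24 h. Survivors counted by plating versus vancomycin alone.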

[2] = test system: methicillin resistant S. aureus Mu50 strain (S. aureus ATCC700699) biofilm; test: Biofilm susceptibility to vancomycin, combination treatment regimen (mature biofilm treated with compound plus vancomycin); format: cell-based; conditions: for Combin. (100 μM): percentage Colony Forming Units (CFU's) per biofilm: compound 100 μM together with VAN 20 μg/ml on mature biofilm; for Combin. (100 μM): percentage Colony Forming Units (CFU's) per biofilm / Combin. (25 μM): percentage Colony Forming Units (CFU's) per biofilm: compared to the untreated (negative) control; for EC50: concentration needed to get 50% killing compared to antibiotic alone (VAN 20 μg/ml) and complete killing, read-out: Combin. (EC50); for Combin. (25 μM): percentage Colony Forming Units (CFU's) per biofilm: compound 25 μM together with VAN 20 μg/ml on mature biofilm
Procedure, shortened: as §1

## O=C(NC[C@]1(O)CO[C@H](CNS(=O)(=O)c2ccccc2Cl)[C@H]1O)c1ccccc1 [compound 218, N-(((3S,4R,5R)-5-(((2-chlorophenyl)sulfonamido)methyl)-3,4-dihydroxytetrahydrofuran-3-yl)methyl)benzamide]
[1]
  Pretreat (100 μM): percentage Colony Forming Units (CFU's) per biofilm: 35.03 percentage
[2]
  Combin. (100 μM): percentage Colony Forming Units (CFU's) per biofilm: 26.88 percentage

## O=C(NC[C@]1(O)CO[C@H](CNS(=O)(=O)c2ccc(-c3ccccc3)cc2)[C@H]1O)c1ccccc1 [compound 219, N-(((3S,4R,5R)-5-(([1,1′-biphenyl]-4-sulfonamido)methyl)-3,4-dihydroxytetrahydrofuran-3-yl)methyl)benzamide]
[1]
  Pretreat (100 μM): percentage Colony Forming Units (CFU's) per biofilm: 16.13 percentage
[2]
  Combin. (100 μM): percentage Colony Forming Units (CFU's) per biofilm: 17.02 percentage

## O=C(NC[C@]1(O)CO[C@H](CNS(=O)(=O)c2ccccc2-c2ccccc2)[C@H]1O)c1ccccc1 [compound 220, N-(((3S,4R,5R)-5-(([1,1′-biphenyl]-2-sulfonamido)methyl)-3,4-dihydroxytetrahydrofuran-3-yl)methyl)benzamide]
[1]
  Pretreat (100 μM): percentage Colony Forming Units (CFU's) per biofilm: 25.63 percentage
[2]
  Combin. (100 μM): percentage Colony Forming Units (CFU's) per biofilm: 29.85 percentage

## O=C(NC[C@]1(O)CO[C@H](Cn2cc(-c3ccccc3)nn2)[C@H]1O)c1ccccc1 [compound 221, N-(((3S,4R,5R)-3,4-dihydroxy-5-((4-phenyl-1H-1,2,3-triazol-1-yl)methyl)tetrahydrofuran-3-yl)methyl)benzamide]
[1]
  Pretreat (100 μM): percentage Colony Forming Units (CFU's) per biofilm: 54.01 percentage
[2]
  Combin. (100 μM): percentage Colony Forming Units (CFU's) per biofilm: 33.81 percentage

## O=C(NC[C@]1(O)CO[C@H](Cn2nncc2-c2ccccc2)[C@H]1O)c1ccccc1 [compound 222, N-(((3S,4R,5R)-3,4-dihydroxy-5-((5-phenyl-1H-1,2,3-triazol-1-yl)methyl)tetrahydrofuran-3-yl)methyl)benzamide]
[1]
  Pretreat (100 μM): percentage Colony Forming Units (CFU's) per biofilm: 47.10 percentage
[2]
  Combin. (100 μM): percentage Colony Forming Units (CFU's) per biofilm: 73.90 percentage

## O=C(NC[C@H]1OC[C@@](O)(CNC(=O)c2ccccc2)[C@@H]1O)Nc1ccccc1 [compound 223, N-(((3S,4R,5R)-3,4-dihydroxy-5-((3-phenylureido)methyl)tetrahydrofuran-3-yl)methyl)benzamide]
[1]
  Pretreat (100 μM): percentage Colony Forming Units (CFU's) per biofilm: 23.99 percentage
[2]
  Combin. (100 μM): percentage Colony Forming Units (CFU's) per biofilm: 18.72 percentage

## O=C(NC[C@]1(O)CO[C@H](CNC(=S)Nc2ccccc2)[C@H]1O)c1ccccc1 [compound 224, N-(((3S,4R,5R)-3,4-dihydroxy-5-((3-phenylthioureido)methyl)tetrahydrofuran-3-yl)methyl)benzamide]
[1]
  Pretreat (100 μM): percentage Colony Forming Units (CFU's) per biofilm: 20.22 percentage
[2]
  Combin. (100 μM): percentage Colony Forming Units (CFU's) per biofilm: 27.33 percentage

## CC(=O)NC[C@H]1OC[C@@](O)(CNC(=O)c2ccccc2)[C@@H]1O [compound 225, N-(((3S,4R,5R)-5-(acetamidomethyl)-3,4-dihydroxytetrahydrofuran-3-yl)methyl)benzamide]
[1]
  Pretreat (100 μM): percentage Colony Forming Units (CFU's) per biofilm: 23.96 percentage
[2]
  Combin. (100 μM): percentage Colony Forming Units (CFU's) per biofilm: 27.38 percentage

## CC(C)(C)C(=O)NC[C@H]1OC[C@@](O)(CNC(=O)c2ccccc2)[C@@H]1O [compound 226, N-(((3S,4R,5R)-3,4-dihydroxy-5-(pivalamidomethyl)tetrahydrofuran-3-yl)methyl)benzamide]
[1]
  Pretreat (100 μM): percentage Colony Forming Units (CFU's) per biofilm: 50.74 percentage
[2]
  Combin. (100 μM): percentage Colony Forming Units (CFU's) per biofilm: 28.64 percentage

## O=C(NC[C@]1(O)CO[C@H](CN2C(=O)c3ccc(Cl)cc3C2=O)[C@H]1O)c1ccccc1 [compound 227, N-(((3S,4R,5R)-5-((5-chloro-1,3-dioxoisoindolin-2-yl)methyl)-3,4-dihydroxytetrahydrofuran-3-yl)methyl)benzamide]
[1]
  Pretreat (100 μM): percentage Colony Forming Units (CFU's) per biofilm: 77.57 percentage
[2]
  Combin. (100 μM): percentage Colony Forming Units (CFU's) per biofilm: 61.81 percentage

## O=C(NC[C@]1(O)CO[C@H](CNCc2ccccc2)[C@H]1O)c1ccccc1 [compound 228, N-(((3S,4R,5R)-5-((benzylamino)methyl)-3,4-dihydroxytetrahydrofuran-3-yl)methyl)benzamide]
[1]
  Pretreat (100 μM): percentage Colony Forming Units (CFU's) per biofilm: 18.68 percentage
  EC50: 41.2 µM
[2]
  Combin. (100 μM): percentage Colony Forming Units (CFU's) per biofilm: 22.13 percentage
  EC50: 45.2 µM

## CN(C[C@]1(O)CO[C@H](CNC(=O)c2ccccc2)[C@H]1O)C(=O)c1ccccc1 [compound 229, N-(((3S,4R,5R)-5-(benzamidomethyl)-3,4-dihydroxytetrahydrofuran-3-yl)methyl)-N-methylbenzamide]
[1]
  Pretreat (100 μM): percentage Colony Forming Units (CFU's) per biofilm: 7.17 percentage
  EC50: 5.82 µM
[2]
  Combin. (100 μM): percentage Colony Forming Units (CFU's) per biofilm: 11.15 percentage
  EC50: 8.92 µM

## O=C(NC[C@]1(O)CO[C@H](CN2Cc3ccccc3C2=O)[C@H]1O)c1ccccc1 [compound 230, N-(((3S,4R,5R)-3,4-dihydroxy-5-((1-oxoisoindolin-2-yl)methyl)tetrahydrofuran-3-yl)methyl)benzamide]
[1]
  Pretreat (100 μM): percentage Colony Forming Units (CFU's) per biofilm: 24.90 percentage
  EC50: 57.7 µM
[2]
  Combin. (100 μM): percentage Colony Forming Units (CFU's) per biofilm: 30.15 percentage
  EC50: 60.2 µM

## O=C(NC[C@H]1OC[C@@](O)(CN2C(=O)c3ccccc3C2=O)[C@@H]1O)c1ccccc1Cl [compound 231, 2-chloro-N-(((2R,3R,4S)-4-((1,3-dioxoisoindolin-2-yl)methyl)-3,4-dihydroxytetrahydrofuran-2-yl)methyl)benzamide]
[1]
  Pretreat (100 μM): percentage Colony Forming Units (CFU's) per biofilm: 8.18 percentage
  EC50: 2.63 µM
[2]
  Combin. (100 μM): percentage Colony Forming Units (CFU's) per biofilm: 28.85 percentage
  EC50: 39 µM

## Cc1ccc(C(=O)NC[C@]2(O)CO[C@H](CNC(=O)c3ccccc3Cl)[C@H]2O)cc1 [compound 232, 2-chloro-N-(((2R,3R,4S)-3,4-dihydroxy-4-((4-methylbenzamido)methyl)tetrahydrofuran-2-yl)methyl)benzamide]
[1]
  Pretreat. (25 μM): percentage Colony Forming Units (CFU's) per biofilm: 52.41 percentage
  EC50: 79.7 µM
[2]
  Combin. (25 μM): percentage Colony Forming Units (CFU's) per biofilm: 42.16 percentage
  EC50: 41.9 µM

## O=C(NC[C@]1(O)CO[C@H](CNC(=O)c2ccccc2Cl)[C@H]1O)c1ccc(F)cc1 [compound 233, 2-chloro-N-(((2R,3R,4S)-4-((4-fluorobenzamido)methyl)-3,4-dihydroxytetrahydrofuran-2-yl)methyl)benzamide]
[1]
  Pretreat. (25 μM): percentage Colony Forming Units (CFU's) per biofilm: 88.61 percentage
[2]
  Combin. (25 μM): percentage Colony Forming Units (CFU's) per biofilm: 91.63 percentage

## O=C(NC[C@]1(O)CO[C@H](CNC(=O)c2ccccc2Cl)[C@H]1O)c1ccc(Cl)cc1 [compound 234, 2-chloro-N-(((2R,3R,4S)-4-((4-chlorobenzamido)methyl)-3,4-dihydroxytetrahydrofuran-2-yl)methyl)benzamide]
[1]
  Pretreat. (25 μM): percentage Colony Forming Units (CFU's) per biofilm: 61.12 percentage
[2]
  Combin. (25 μM): percentage Colony Forming Units (CFU's) per biofilm: 56.96 percentage

## COc1ccc(C(=O)NC[C@]2(O)CO[C@H](CNC(=O)c3ccccc3Cl)[C@H]2O)cc1 [compound 235, 2-chloro-N-(((2R,3R,4S)-3,4-dihydroxy-4-((4-methoxybenzamido)methyl)tetrahydrofuran-2-yl)methyl)benzamide]
[1]
  Pretreat. (25 μM): percentage Colony Forming Units (CFU's) per biofilm: 66.10 percentage
[2]
  Combin. (25 μM): percentage Colony Forming Units (CFU's) per biofilm: 57.35 percentage

## N#Cc1ccc(C(=O)NC[C@]2(O)CO[C@H](CNC(=O)c3ccccc3Cl)[C@H]2O)cc1 [compound 236, 2-chloro-N-(((2R,3R,4S)-4-((4-cyanobenzamido)methyl)-3,4-dihydroxytetrahydrofuran-2-yl)methyl)benzamide]
[1]
  Pretreat. (25 μM): percentage Colony Forming Units (CFU's) per biofilm: 73.00 percentage
[2]
  Combin. (25 μM): percentage Colony Forming Units (CFU's) per biofilm: 70.73 percentage

## CN(C)c1ccc(C(=O)NC[C@]2(O)CO[C@H](CNC(=O)c3ccccc3Cl)[C@H]2O)cc1 [compound 237, 2-chloro-N-(((2R,3R,4S)-4-((4-(dimethylamino)benzamido)methyl)-3,4-dihydroxytetrahydrofuran-2-yl)methyl)benzamide]
[1]
  Pretreat. (25 μM): percentage Colony Forming Units (CFU's) per biofilm: 58.79 percentage
  EC50: 47.6 µM
[2]
  Combin. (25 μM): percentage Colony Forming Units (CFU's) per biofilm: 47.56 percentage
  EC50: 69.7 µM

## O=C(NC[C@]1(O)CO[C@H](CNC(=O)c2ccccc2Cl)[C@H]1O)c1ccc(C(F)(F)F)cc1 [compound 238, 2-chloro-N-(((2R,3R,4S)-3,4-dihydroxy-4-((4-(trifluoromethyl)benzamido)methyl)tetrahydrofuran-2-yl)methyl)benzamide]
[1]
  Pretreat. (25 μM): percentage Colony Forming Units (CFU's) per biofilm: 45.03 percentage
  EC50: 84.6 µM
[2]
  Combin. (25 μM): percentage Colony Forming Units (CFU's) per biofilm: 68.51 percentage
  EC50: 75.2 µM

## O=C(NC[C@]1(O)CO[C@H](CNC(=O)c2ccccc2Cl)[C@H]1O)c1ccncc1 [compound 239, N-(((3S,4R,5R)-5-((2-chlorobenzamido)methyl)-3,4-dihydroxytetrahydrofuran-3-yl)methyl)isonicotinamide]
[1]
  Pretreat. (25 μM): percentage Colony Forming Units (CFU's) per biofilm: 49.98 percentage
[2]
  Combin. (25 μM): percentage Colony Forming Units (CFU's) per biofilm: 58.76 percentage

## O=C(NC[C@]1(O)CO[C@H](CNC(=O)c2ccccc2Cl)[C@H]1O)c1cccc(F)c1 [compound 240, 2-chloro-N-(((2R,3R,4S)-4-((3-fluorobenzamido)methyl)-3,4-dihydroxytetrahydrofuran-2-yl)methyl)benzamide]
[1]
  Pretreat. (25 μM): percentage Colony Forming Units (CFU's) per biofilm: 118.37 percentage
[2]
  Combin. (25 μM): percentage Colony Forming Units (CFU's) per biofilm: 91.32 percentage
